Consider 22 compounds from patent publication US9981940B2, “Aryl sulfide derivatives and aryl sulfoxide derivatives as acaricides and insecticides” (BAYER CROPSCIENCE AKTIENGESELLSCHAFT, priority 2013, dated 2018).

The test system of the first data set is Tetranychus urticae. Briefly: Tetranychus urticae spray test, OP-resistant (TETRUR). As to conditions: application rate of 500 g/ha; after 6 days. The data set is classed as in vivo. In outline: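 Mortality as % efficacy (0% = no mites killed) read 6 days after spraying. Formulation: active ingredient in acetone/dimethylformamide plus emulsifier, diluted with emulsifier-containing water, applied to Phaseolus vulgaris leaf discs carrying every life stage of OP-resistant spider mites.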
With `CCCCOc1nn(-c2ccc(C)c(SCC(F)(F)F)c2)c(=O)n1C1CC1` [Example 126], the efficacy was 90%.

On to `CCCOc1nn(-c2cc(SCC(F)(F)F)c(C)cc2F)c(=O)n1C` [Example 127], for which the efficacy worked out at 100%.

As to `CCCCOc1nn(-c2cc(SCC(F)(F)F)c(C)cc2F)c(=O)n1C` [Example 128], the efficacy is recorded as 90%.

`CCOc1nn(-c2cc(SCC(F)(F)F)c(C)cc2F)c(=O)n1C` [Example 129]: the efficacy is 90%.

On to `CCOc1nn(-c2ccc(C)c(SCC(F)(F)F)c2)c(=O)n1C` [Example 130], for which the efficacy is on record as 90%.

In the case of `CCOc1nn(-c2cc([S+]([O-])CC(F)(F)F)c(C)cc2F)c(=O)n1C` (stereo not drawn) [Example 131], the efficacy is reported as 90%.

The compound `CCCOc1nn(-c2cc([S+]([O-])CC(F)(F)F)c(C)cc2F)c(=O)n1C` (stereo not drawn) [Example 132] came in with an efficacy of 100%.

The compound `CCCOc1nn(-c2ccc(C)c([S+]([O-])CC(F)(F)F)c2)c(=O)n1C` (stereo not drawn) [Example 133] returned an efficacy of 90%.

In the case of `Cc1cc(F)c(-n2nc(OCC3CC3)n(C3CC3)c2=O)cc1SCC(F)(F)F` [Example 134], the efficacy was 90%.

Turning to `C=C(C)CCOc1nn(-c2cc(SCC(F)(F)F)c(C)cc2F)c(=O)n1C1CC1` [Example 136], the efficacy is reported as 90%.

With `C=C(C)CCOc1nn(-c2cc([S+]([O-])CC(F)(F)F)c(C)cc2F)c(=O)n1C1CC1` (stereo not drawn) [Example 137], the efficacy is given as 90%.

`CCC(C)Oc1nn(-c2cc([S+]([O-])CC(F)(F)F)c(C)cc2F)c(=O)n1C1CC1` (stereo not drawn) [Example 141] gave an efficacy of 90%.

`Cc1cc(F)c(-n2nc(OCC3CC3)n(C)c2=O)cc1SCC(F)(F)F` [Example 143] displayed an efficacy of 90%.

Compound `COc1nn(-c2ccc(C(F)(F)F)c(SCC(F)(F)F)c2)c(=O)n1C1CC1` [Example 144] showed an efficacy of 90%.

`Cc1cc(F)c(-n2nc(OCC(C)C)n(C)c2=O)cc1SCC(F)(F)F` [Example 148] displayed an efficacy of 90%.

Regarding `COCCOc1nn(-c2cc(SCC(F)(F)F)c(C)cc2F)c(=O)n1C` [Example 149], the efficacy is listed as 100%.

For `Cc1cc(F)c(-n2nc(OC(C)C)n(C)c2=O)cc1SCC(F)(F)F` [Example 151], the efficacy is listed as 100%.

For the compound `Cc1cc(F)c(-n2nc(OCC(C)C)n(C)c2=O)cc1[S+]([O-])CC(F)(F)F` (stereo not drawn) [Example 152], the efficacy was determined as 90%.

In turn, `Cc1cc(F)c(-n2nc(OC3CCCCC3)n(C)c2=O)cc1SCC(F)(F)F` [Example 153] came in with an efficacy of 100%.

`Cc1ccc(-n2nc(OC3CCCCC3)n(C)c2=O)cc1SCC(F)(F)F` [Example 155]: the efficacy was found to be 100%.

Compound `Cc1cc(F)c(-n2nc(Oc3ccccc3)n(C)c2=O)cc1SCC(F)(F)F` [Example 158] returned an efficacy of 100%.

`Cc1cc(F)c(-n2nc(Oc3ccccc3)n(C)c2=O)cc1[S+]([O-])CC(F)(F)F` (stereo not drawn) [Example 159] yielded an efficacy of 100%.

System in the next data set: not listed separately
The experiment in a line: log P by HPLC (OECD Guideline 117), method [a] acidic range. Type of data set: physicochemical. As to conditions: HPLC, method [a] acidic range. The method, then:
(§1) The log P values were determined analogously to OECD Guideline 117 (EC Directive 92/69/EEC) by HPLC (high-performance liquid chromatography) using reversed-phase columns (C 18), by the following methods:
[a] The LC-MS determination in the acidic range is effected at pH 2.7 with 0.1% aqueous formic acid and acetonitrile (contains 0.1% formic acid) as eluents; linear gradient from 10% acetonitrile to 95% acetonitrile.
As to `CCCCOc1nn(-c2ccc(C)c(SCC(F)(F)F)c2)c(=O)n1C1CC1` [Example 126], the “logP[a]” value was 5.11.

In the case of `CCCOc1nn(-c2cc(SCC(F)(F)F)c(C)cc2F)c(=O)n1C` [Example 127], the “logP[a]” value is given as 3.61.

For the compound `CCCCOc1nn(-c2cc(SCC(F)(F)F)c(C)cc2F)c(=O)n1C` [Example 128], the “logP[a]” value is listed as 4.11.

With `CCOc1nn(-c2cc(SCC(F)(F)F)c(C)cc2F)c(=O)n1C` [Example 129], the “logP[a]” value is 3.19.

Take `CCOc1nn(-c2ccc(C)c(SCC(F)(F)F)c2)c(=O)n1C` [Example 130]: the “logP[a]” value worked out at 3.77.

For the compound `CCOc1nn(-c2cc([S+]([O-])CC(F)(F)F)c(C)cc2F)c(=O)n1C` (stereo not drawn) [Example 131], the “logP[a]” value came out at 2.13.

With `CCCOc1nn(-c2cc([S+]([O-])CC(F)(F)F)c(C)cc2F)c(=O)n1C` (stereo not drawn) [Example 132], the “logP[a]” value turned out to be 2.52.

`CCCOc1nn(-c2ccc(C)c([S+]([O-])CC(F)(F)F)c2)c(=O)n1C` (stereo not drawn) [Example 133]: the “logP[a]” value is given as 2.93.

Take `Cc1cc(F)c(-n2nc(OCC3CC3)n(C3CC3)c2=O)cc1SCC(F)(F)F` [Example 134]: the “logP[a]” value came to 3.99.

`C=C(C)CCOc1nn(-c2cc(SCC(F)(F)F)c(C)cc2F)c(=O)n1C1CC1` [Example 136]: the “logP[a]” value was 4.37.

For the compound `C=C(C)CCOc1nn(-c2cc([S+]([O-])CC(F)(F)F)c(C)cc2F)c(=O)n1C1CC1` (stereo not drawn) [Example 137], the “logP[a]” value came out at 3.25.

Consider `CCC(C)Oc1nn(-c2cc([S+]([O-])CC(F)(F)F)c(C)cc2F)c(=O)n1C1CC1` (stereo not drawn) [Example 141], for which the “logP[a]” value is recorded as 3.18.

`Cc1cc(F)c(-n2nc(OCC3CC3)n(C)c2=O)cc1SCC(F)(F)F` [Example 143]: the “logP[a]” value is listed as 3.66.

In the case of `COc1nn(-c2ccc(C(F)(F)F)c(SCC(F)(F)F)c2)c(=O)n1C1CC1` [Example 144], the “logP[a]” value is recorded as 4.14.

In the case of `Cc1cc(F)c(-n2nc(OCC(C)C)n(C)c2=O)cc1SCC(F)(F)F` [Example 148], the “logP[a]” value is recorded as 4.03.

Consider `COCCOc1nn(-c2cc(SCC(F)(F)F)c(C)cc2F)c(=O)n1C` [Example 149], for which the “logP[a]” value is on record as 2.83.

For the compound `Cc1cc(F)c(-n2nc(OC(C)C)n(C)c2=O)cc1SCC(F)(F)F` [Example 151], the “logP[a]” value came out at 3.61.

As to `Cc1cc(F)c(-n2nc(OCC(C)C)n(C)c2=O)cc1[S+]([O-])CC(F)(F)F` (stereo not drawn) [Example 152], the “logP[a]” value was 2.90.

In the case of `Cc1cc(F)c(-n2nc(OC3CCCCC3)n(C)c2=O)cc1SCC(F)(F)F` [Example 153], the “logP[a]” value amounted to 4.50.

On to `Cc1ccc(-n2nc(OC3CCCCC3)n(C)c2=O)cc1SCC(F)(F)F` [Example 155], for which the “logP[a]” value amounted to 5.22.

Turning to `Cc1cc(F)c(-n2nc(Oc3ccccc3)n(C)c2=O)cc1SCC(F)(F)F` [Example 158], the “logP[a]” value is 3.70.

Consider `Cc1cc(F)c(-n2nc(Oc3ccccc3)n(C)c2=O)cc1[S+]([O-])CC(F)(F)F` (stereo not drawn) [Example 159], for which the “logP[a]” value came to 2.70.

System in the next data set: not listed separately
The experiment in a line: log P by HPLC (OECD Guideline 117), method [b] neutral range. As to conditions: HPLC, method [b] neutral range. Type of data set: physicochemical. The method, then:
as §1
[b] The LC-MS determination in the neutral range is effected at pH 7.8 with 0.001 molar aqueous ammonium hydrogencarbonate solution and acetonitrile as eluents; linear gradient from 10% acetonitrile to 95% acetonitrile.
For the compound `CCCCOc1nn(-c2ccc(C)c(SCC(F)(F)F)c2)c(=O)n1C1CC1` [Example 126], the “logP[b]” value turned out to be 5.02.

In the case of `CCCOc1nn(-c2cc(SCC(F)(F)F)c(C)cc2F)c(=O)n1C` [Example 127], the “logP[b]” value is reported as 3.57.

Consider `CCCCOc1nn(-c2cc(SCC(F)(F)F)c(C)cc2F)c(=O)n1C` [Example 128], for which the “logP[b]” value stood at 3.95.

With `CCOc1nn(-c2cc(SCC(F)(F)F)c(C)cc2F)c(=O)n1C` [Example 129], the “logP[b]” value is reported as 3.14.

For the compound `CCOc1nn(-c2ccc(C)c(SCC(F)(F)F)c2)c(=O)n1C` [Example 130], the “logP[b]” value was 3.74.

`CCOc1nn(-c2cc([S+]([O-])CC(F)(F)F)c(C)cc2F)c(=O)n1C` (stereo not drawn) [Example 131]: the “logP[b]” value is reported as 2.09.

On to `CCCOc1nn(-c2cc([S+]([O-])CC(F)(F)F)c(C)cc2F)c(=O)n1C` (stereo not drawn) [Example 132], for which the “logP[b]” value was 2.47.

On to `CCCOc1nn(-c2ccc(C)c([S+]([O-])CC(F)(F)F)c2)c(=O)n1C` (stereo not drawn) [Example 133], for which the “logP[b]” value stood at 2.86.

In the case of `Cc1cc(F)c(-n2nc(OCC3CC3)n(C3CC3)c2=O)cc1SCC(F)(F)F` [Example 134], the “logP[b]” value is reported as 3.90.

On to `C=C(C)CCOc1nn(-c2cc(SCC(F)(F)F)c(C)cc2F)c(=O)n1C1CC1` [Example 136], for which the “logP[b]” value is given as 4.33.

On to `C=C(C)CCOc1nn(-c2cc([S+]([O-])CC(F)(F)F)c(C)cc2F)c(=O)n1C1CC1` (stereo not drawn) [Example 137], for which the “logP[b]” value amounted to 3.17.

For `CCC(C)Oc1nn(-c2cc([S+]([O-])CC(F)(F)F)c(C)cc2F)c(=O)n1C1CC1` (stereo not drawn) [Example 141], the “logP[b]” value was 3.12.

For `Cc1cc(F)c(-n2nc(OCC3CC3)n(C)c2=O)cc1SCC(F)(F)F` [Example 143], the “logP[b]” value was determined as 3.58.

As for `COc1nn(-c2ccc(C(F)(F)F)c(SCC(F)(F)F)c2)c(=O)n1C1CC1` [Example 144], the “logP[b]” value stood at 3.85.

On to `Cc1cc(F)c(-n2nc(OCC(C)C)n(C)c2=O)cc1SCC(F)(F)F` [Example 148], for which the “logP[b]” value stood at 3.92.

On to `COCCOc1nn(-c2cc(SCC(F)(F)F)c(C)cc2F)c(=O)n1C` [Example 149], for which the “logP[b]” value was 2.76.

As to `Cc1cc(F)c(-n2nc(OC(C)C)n(C)c2=O)cc1SCC(F)(F)F` [Example 151], the “logP[b]” value is given as 3.53.

For `Cc1cc(F)c(-n2nc(OCC(C)C)n(C)c2=O)cc1[S+]([O-])CC(F)(F)F` (stereo not drawn) [Example 152], the “logP[b]” value was 2.83.

Turning to `Cc1cc(F)c(-n2nc(OC3CCCCC3)n(C)c2=O)cc1SCC(F)(F)F` [Example 153], the “logP[b]” value is recorded as 4.44.

For `Cc1ccc(-n2nc(OC3CCCCC3)n(C)c2=O)cc1SCC(F)(F)F` [Example 155], the “logP[b]” value amounted to 5.17.

In the case of `Cc1cc(F)c(-n2nc(Oc3ccccc3)n(C)c2=O)cc1SCC(F)(F)F` [Example 158], the “logP[b]” value amounted to 3.66.

On to `Cc1cc(F)c(-n2nc(Oc3ccccc3)n(C)c2=O)cc1[S+]([O-])CC(F)(F)F` (stereo not drawn) [Example 159], for which the “logP[b]” value is on record as 2.65.
